Reference: patent US20040166559A1, “Vectors for gene therapy” (priority 2001, published 2004)
≈ marks a conversion by molar mass, not a printed value. Like-named read-outs stand apart in the source and are kept apart here.

Experiments:
[1] = test system: circulating transduced T-cells; experiment: Clinical study: transduced donor T-cells with T cell depleted bone marrow, GCV treatment of GvHD; assay type: in vivo, human
Excerpt: Escalating amounts of CD3^+ gene-modified cells were infused with T cell depleted bone marrow. Twelve patients with hematological malignancies received 2×10^5 (n=5), 6×10^5 (n=5) or 20×10^5 (n=2) transduced donor CD3^+ cells/kg with bone marrow from an HLA-identical sibling. Acute toxicity was not observed. […] Three patients developed acute GvHD grade≧II while 1 patient developed chronic GvHD (skin and salivary glands). […] In patients receiving GCV, blood samples for detection of gene-modified cells expressing the wild-type or truncated form of the HSV-Tk gene were harvested prior to GCV treatment and a regular two weeks intervals.

TK-CEM sub-clones = experiment: Ganciclovir cytotoxic assay (3H-thymidine incorporation); assay type: cell-based, human; details: for IC50: Homo sapiens
Method: Cells were incubated for 4 days in the presence of increasing concentration of GCV (range from 0.05 to 12.5 μg/mL). Cell proliferation was measured by the incorporation of ^3H— thymidine into the cell DNA. Results are expressed as percentage of incorporated ^3H-thymidine at each GCV concentration respect to the incorporation obtained in the absence of GCV. (♦) non-transduced CEM cells and (▪) SFCMM 3 transduced TK-CEM sub-clones.
Ganciclovir Cytotoxic Assay
A total of 2×10^4 cells/well were seeded into a 96-well plate in 100 μL of medium. Cells were cultured for 4 days with increasing concentrations (from 0.05 to 12.5 μg/mL) of GCV (Cymevene®, Hoffman-La Roche A G, Germany). Afterwards, 1 μCi/well of tritiated thymidine (methyl ^3H-thymidine, TRA.120, 1.0 MBq/mL, Amersham International, England) was added 18 h. before harvesting the cell DNA in a cell harvester (Wallac, Gaitherburg, Md.). The incorporation of ^3H-thymidine into the DNA was measured in a β-scintillation counter (Wallac 1410, aitherburg, Md.). All GCV concentrations were tested in triplicate esults are expressed as percentage of incorporated ^3H-thymidine at each GCV concentration with respect to the incorporation obtained in the absence of GCV.
The expression of the HSV-TK transgene m the TK-CEM sub-clones was determined by the inhibition in cell proliferation when the cells were cultured at increasing concentrations of GCV.

primary T-cells = experiment: GCV sensitivity of G1Tk1SvNa transduced primary T-cells following G418 selection; assay type: cell-based, human; details: n=12
Method: Transduction of donor T-cells with the G1Tk1SvNa retroviral vector was as previously described (Robinet et al (1998) J. Hematother. 7, 205-215). PBMNC were cultured for 3 days with OKT3 (10 ng, Ortho) and rhIL-2 (500 U/mL, Chiron). Infection with retroviral supernatant for 24 hours was followed by G418 (800 μg/mL, Sigma) selection of transduced cells for 7 days. Dead cells were removed and the viable transduced product was cryopreserved for future use. The transduction of CEM cells with the G1Tk1SvNa vector involved identical infection conditions to those described for the SFCMM3 vector, followed by selection in G418 (800 μg/ml) for 7-14 days.
The transduction efficiency of primary T-cells with G1Tk1SvNa prior to G418 selection, as measured by quantitative PCR for Neo^R, was 8.3±1.4% (n=12). The GCV sensitivity of these cells following G418 selection was 87±1.2% (n=12). The relative cell growth of control and transduced cells from one representative transduction/selection experiment is shown in FIG. 16.

[2] = test system: T cell lines and primary T cells; experiment: GCV sensitivity of T cell lines and primary T cells transduced with corrected or non-corrected HSV-Tk vectors; assay type: cell-based, human; details: inhibition of cell viability
Excerpt: FIG. 18. GCV sensitivity of T cell lines and primary T cells transduced with corrected or non-corrected HSV-Tk vectors. GCV sensitivity of Hut-78 (A) and CEM (B) cell line transduced with corrected SF/Tk/mut (?) or non-corrected vector G1Tk1SVNa (◯) or SF/Tk/wt (Δ) compared to untransduced T-cell lines (▪). The data represents the inhibition of cell viability and are the mean±SD of 8 and 3 different independent experiments, for CEM and Hut-78 cell lines respectively. (C) GCV sensitivity of primary T cells transduced with corrected sc-SFCMM3 (Δ) or non corrected SFCMM3 vectors (?) compared to untransduced T cells (▪).
Primary T cells and the T cell lines, HuT78 (ATCC TIB-161) and CEM (ATCC CRL 2265)] were transduced with G1Tk1SVNa, SF/Tk/wt, SF/Tk/mut, SFCMM3 or scSFCMM3 vectors. HSV-Tk PCR (as described in^7) was performed on transduced target cells. In addition, PCR was performed using primers which selectively amplified the deleted form of the HSV-Tk gene using a 5′ primer, which spans the truncation point [TrTk1: 5′CTCGACCAGG§GCCGTGCT. (§ denoting the junction) and the previously described RTk2 3′ primer^7. Splicing from the transduced cell lines was quantified as described.^7

transduced donor cells = details: one patient with chronic GvHD; declined from 11.9%; cited from earlier work
[3] = patients, GCV treatment for GvHD, quantitative PCR of the NeoR gene

For `Nc1nc(O)c2ncn(COC(CO)CO)c2n1` [GCV], the “change in circulating transduced T-cells” value ([1]; patients receiving ganciclovir) was “significant rapid decrease”, the “reduction of absolute number of circulating transduced T-cells” value [1, 3] was 76-99.5% and the “reduction of percentage of circulating transduced T-cells” value [1, 3] was 85-98%. The “outcome of chronic GvHD” value ([1]; the patient with chronic GvHD (skin and salivary glands)) was “Long-lasting CR”, the “outcome of acute GvHD” value ([1]; treatment with GCV alone, three patients had acute GvHD grade ≧II) was “complete remission (CR) in 2 patients” and the IC50 (TK-CEM sub-clones; 96 h, TK-CEM clones #6 and #10, 4 days with GCV, read-out: concentration of GCV to achieve the 50% inhibition in cell proliferation) was 0.25 µg/mL (≈ 0.979 µM). The IC50 (TK-CEM sub-clones; read-out: IC50 inhibition in cell proliferation assessed by the incorporation of 3H-thymidine) was 0.1 µg/mL (≈ 0.392 µM), the “cell proliferation at increasing concentrations of GCV” value (TK-CEM sub-clones; TK-CEM clones #1, #2, #4, #5, #7 and #14) was “parallel to that obtained in the non-transduced cells” and the “complete inhibition in cell proliferation” value (TK-CEM sub-clones; TK-CEM clones #6 and #10, GCV increased up to 12.5 μg/mL) was “not completely achieved”. The GCV sensitivity (primary T-cells) was 87±1.2%, the “GCV sensitivity of cells expressing the mutated HSV-Tk gene compared to populations transduced by wild-type gene” value [2] was “only marginally increased” and the “proportion of transduced donor cells after administration of GCV” value (transduced donor cells) was 2.8%.
